“And” between values parts separate entries of the source, which are not always exact repeats. Equal values may be shown once. Where a name gives a salt, the structure may show the parent alone. Read-outs that look alike come from different tables or passages of the source.
Key:
[1] = system: total α-tubulin; assay: cell-based assay of MT-stabilization: total α-tubulin in QBI293 cell lysates by ELISA; conditions: QB1293 cells; for fold induction at 1 µM / fold induction at 10 µM: QBI293, 4 h
Description: (§1) All test compounds were evaluated in a previously described cell-based assay of MT-stabilization (see Kovalevich, J., et al. (2016) Characterization of Brain-Penetrant Pyrimidine-Containing Molecules with Differential Microtubule-Stabilizing Activities Developed as Potential Therapeutic Agents for Alzheimer's Disease and Related Tauopathies. J Pharmacol Exp Ther 357, 432-450, incorporated herein by reference), in which compound-dependent changes in tubulin polymerization and total tubulin levels were determined after 4 h of incubation of QBI293 cells with 1 and 10 μM compound via quantification of acetylated α-tubulin and total tubulin in cell lysates by ELISA.
(§2) Novel C6 nitrile- and alkyne-substituted triazolopyrimidine examples that have improved in vitro activity relative to previously described examples, with the general structure depicted in Formula I. The activity of the novel C6-nitrile substituted compounds were tested in a previously described cellular assay of MT-stabilization (Kovalevich, J., et al. (2016)). As summarized in Table 2. below, eighteen examples were synthesized and tested. In all cases, these compounds were confirmed to be active Class I triazolopyrimidines. […] Table 2 provides fold-changes in acetylated α-tubulin and total α-tubulin levels in QB1293 cells after 4 h incubation with test compounds at either 1 or 10 μM. Data are expressed as the fold-change relative to vehicle-treated cells. *p<0.05 and **p<0.01 by one-way ANOVA.
(§3) Compounds produced according to the preceding synthetic schemes were for microtubule stabilization. Fold-changes in acetylated α-tubulin (AcTub) and α-tubulin (α-Tub) levels in QB1293 cells after 4 h incubation with test compounds at either 1 or 10 μM. Reported values for AcTub and α-Tub represent the fold-change over control (DMSO)-treated cells (*p<0.05 and **p<0.01 by one-way ANOVA); numbers in parentheses represent the fold-change of AcTub over positive control-treated cells (i.e., 100 nM of cevipabulin). Changes of +/−15% of control are deemed to be within the day-to-day assay variability and non-significant.

[2] = system: acetylated α-tubulin; assay: cell-based assay of MT-stabilization: acetylated α-tubulin in QBI293 cell lysates by ELISA; conditions: QBI293; QB1293 cells, 4 h incubation, 1 μM compound; relative to vehicle-treated cells; *p<0.05, **p<0.01; read-out: AcTub l μM (fold-change in acetylated α-tubulin)
Description: as §1, §2, §3

[3] = Plasma and brain compound determinations (LC-MS/MS); assay type: in vivo; conditions: CD1 mice, 2.5 mg/kg each, one hour after dosing; for concentration at 1 h / Kp at 1 h: CD1, mouse, 2.5 mg/kg
Description: CD1 mice (n=3) were dosed concurrently with CNDR-51990 and CNDR-51993 (representing a 1:1 mixture of two diastereoisomers, 52017 (67) and 52016 (68)) at 2.5 mg/kg each). One hour after dosing, mice were euthanized and blood collected, followed by perfusion with saline. Mouse brains were homogenized in 10 mM ammonium acetate, pH 5.7 (1:2; w/v) using a handheld sonic homogenizer. Mouse plasma was obtained from blood that was collected into a 1.5 ml tube containing 0.5M EDTA solution and which was centrifuged for 10 minutes at 4500 g at 4° C. Aliquots (50 μl) of brain homogenates or plasma were mixed with 0.2 ml of acetonitrile, centrifuged at 15,000×g, and the resulting supernatant was used for subsequent LC-MS/MS analysis. The LC-MS/MS analysis was conducted by Inotiv, Inc., utilizing methods essentially as previously described (Lou et al., J. Med. Chem. 57:6116-27, 2014).

[4] = Table 4, 4 h, 1 μM, read-out: α-Tub l μM (fold-change over control (DMSO)-treated cells)
[5] = 4 h incubation, 1 μM compound, relative to vehicle-treated cells, read-out: α-Tub 1 μM (fold-change in total α-tubulin)
[6] = 4 h incubation, 10 μM compound, relative to vehicle-treated cells, read-out: α-Tub 10 μM (fold-change in total α-tubulin)
[7] = dosed concurrently, individual animals 1-3
[8] = 4 h incubation, 1 μM compound, relative to vehicle-treated cells
[9] = Table 4, 4 h, 10 μM, read-out: α-Tub 10 μM (fold-change over control (DMSO)-treated cells)

Row | Structure (SMILES) | fold induction at 1 µM [1, 4] | fold induction at 1 µM [1, 5] | fold induction at 10 µM [1, 6] | other results
1 | C#Cc1cc(F)c(-c2c(Cl)nc3ncnn3c2N[C@H](C)C(C)C)c(F)c1 [TAL-487, (R)-5-chloro-6-(4-ethynyl-2,6-difluorophenyl)-N-(3-methylbutan-2-yl)-[1,2,4]triazolo[1,5-a]pyrimidin-7-amine] | 0.98 |  |  | 
2 | CC(C)[C@@H](Nc1c(-c2c(F)cc(C#N)cc2F)c(Cl)nc2ncnn12)C(F)(F)F [Compound 62, (R)-4-(5-chloro-7-((1,1,1-trifluoro-3-methylbutan-2-yl)amino)-[1,2,4]triazolo[1,5-a]pyrimidin-6-yl)-3,5-difluorobenzonitrile] |  | 1.02 | 1.01 | fold induction at 1 µM [2]: 0.99 ± 0.06
3 | N#Cc1cc(F)c(-c2c(Cl)nc3ncnn3c2N2CCCCC2)c(F)c1 [Compound 73] |  | 1 | 1.07 | fold induction at 1 µM [2]: 1
4 | CC(C)[C@@H](C)Nc1c(-c2ccc(C#N)cc2F)c(Cl)nc2ncnn12 [CNDR-51993, (R)-4-(5-chloro-7-((3-methylbutan-2-yl)amino)-[1,2,4]triazolo[1,5-a]pyrimidin-6-yl)-3-fluorobenzonitrile] |  |  |  | concentration at 1 h ([3]; brain, dosed concurrently, individual animals 1-3, read-out: Brain Concentration): 209 ng/g; concentration at 1 h ([3]; brain, dosed concurrently, mean, n=3, read-out: Brain Concentration, Mean): 225 ng/g; Kp at 1 h ([3]; brain, individual animals 1-3, read-out: Brain/Plasma): 0.86; Kp at 1 h ([3]; brain, mean, n=3, read-out: Brain/Plasma, Mean): 1.09; concentration at 1 h ([3]; plasma, dosed concurrently, individual animals 1-3, read-out: Plasma Concentration): 242 ng/mL; concentration at 1 h ([3]; plasma, dosed concurrently, mean, n=3, read-out: Plasma Concentration, Mean): 206 ng/mL; Brain Concentration [3, 7]: 211 ng/g and 254 ng/g; Plasma Concentration [3, 7]: 186 ng/mL and 190 ng/mL; Brain/Plasma ([3]; individual animals 1-3): 1.13 and 1.34
5 | CC(C)[C@@H](C)Nc1c(-c2c(F)cc(C#CCN(C)C)cc2F)c(Cl)nc2ncnn12 [TAL-546, (R)-5-chloro-6-(4-(3-(dimethylamino)prop-1-yn-1-yl)-2,6-difluorophenyl)-N-(3-methylbutan-2-yl)-[1,2,4]triazolo[1,5-a]pyrimidin-7-amine] | 0.98 |  |  | 
6 | N#Cc1ccc(-c2c(Cl)nc3ncnn3c2N2CCCCCC2)c(F)c1 [Compound 76, 4-(7-(Azepan-1-yl)-5-chloro-[1,2,4]triazolo[1,5-a]pyrimidin-6-yl)-3-fluorobenzonitrile] |  |  | 0.99 | α-Tub 1 μM (fold-change in total α-tubulin) [1, 8]: 1.04 +/− 0.05 fold-change
7 | CNCC#Cc1cc(F)c(-c2c(Cl)nc3ncnn3c2N[C@H](C)C(C)C)c(F)c1 [TAL-637, (R)-5-chloro-6-(2,6-difluoro-4-(3-(methylamino)prop-1-yn-1-yl)phenyl)-N-(3-methylbutan-2-yl)-[1,2,4]triazolo[1,5-a]pyrimidin-7-amine hydrochloride] | 0.96 |  |  | fold induction at 10 µM [1, 9]: 0.96
8 | N#Cc1cc(F)c(-c2c(Cl)nc3ncnn3c2N2CCCCCCC2)c(F)c1 [Compound 77, 4-(7-(azocan-1-yl)-5-chloro-[1,2,4]triazolo[1,5-a]pyrimidin-6-yl)-3,5-difluorobenzonitrile] |  |  | 0.99 | α-Tub 1 μM (fold-change in total α-tubulin) [1, 8]: 1.01 +/− 0.02 fold-change
9 | CC(C)[C@@H](C)Nc1c(-c2c(F)cc(C#N)cc2F)c(Cl)nc2ncnn12 [Compound 66, (R)-4-(5-chloro-7-((3-methylbutan-2-yl)amino)-[1,2,4]triazolo[1,5-a]pyrimidin-6-yl)-3,5-difluorobenzonitrile] |  | 0.93 | 0.94 | 
10 | CC(C)[C@@H](Nc1c(-c2ccc(C#N)cc2F)c(Cl)nc2ncnn12)C(F)(F)F [Compound 63, (R)-4-(5-chloro-7-((1,1,1-trifluoro-3-methylbutan-2-yl)amino)-[1,2,4]triazolo[1,5-a]pyrimidin-6-yl)-3-fluorobenzonitrile] |  | 0.99 | 0.98 | 
11 | CC(C)[C@@H](C)Nc1c(-c2ccc(C#N)cc2F)c(Cl)nc2ncnn12 [Compound 68, (R)-4-(5-chloro-7-((3-methylbutan-2-yl)amino)-[1,2,4]triazolo[1,5-a]pyrimidin-6-yl)-3-fluorobenzonitrile] |  |  |  | α-Tub 1 μM (fold-change in total α-tubulin) ([1]; 4 h incubation, 1 μM compound, relative to vehicle-treated cells, listed as 52016 (68)): 0.95 +/− 0.02 fold-change; α-Tub 10 μM (fold-change in total α-tubulin) ([1]; 4 h incubation, 10 μM compound, relative to vehicle-treated cells, listed as 52016 (68)): 0.92 +/− 0.01 fold-change
12 | C[C@H](Nc1c(-c2c(F)cc(C#N)cc2F)c(Cl)nc2ncnn12)C(F)(F)F [Compound 19, (S)-4-(5-Chloro-7-((1,1,1-trifluoropropan-2-yl)amino)-[1,2,4]triazolo[1,5-a]pyrimidin-6-yl)-3,5-difluorobenzonitrile] |  | 0.94 ± 0.02 | 0.95 ± 0.05 | 
13 | C[C@@H](Nc1c(-c2c(F)cc(C#CCCN(C)C)cc2F)c(Cl)nc2ncnn12)C(C)(C)C [TAL-664, (R)-5-chloro-6-(4-(4-(dimethylamino)but-1-yn-1-yl)-2,6-difluorophenyl)-N-(3,3-dimethylbutan-2-yl)-[1,2,4]triazolo[1,5-a]pyrimidin-7-amine] | 0.88 |  |  | fold induction at 10 µM [1, 9]: 0.96
14 | C[C@H](Nc1c(-c2ccc(C#N)cc2F)c(Cl)nc2ncnn12)C(F)(F)F [Compound 61, (S)-4-(5-Chloro-7-((1,1,1-trifluoropropan-2-yl)amino)-[1,2,4]triazolo[1,5-a]pyrimidin-6-yl)-3-fluorobenzonitrile] |  | 1 | 1 | 
15 | C[C@@H](Nc1c(-c2c(F)cc(C#CCCCO)cc2F)c(Cl)nc2ncnn12)C(C)(C)C [TAL-601, (R)-5-(4-(5-chloro-7-((3,3-dimethylbutan-2-yl)amino)-[1,2,4]triazolo[1,5-a]pyrimidin-6-yl)-3,5-difluorophenyl)pent-4-yn-1-ol] | 1.18 |  |  | 
16 | CNCC#Cc1cc(F)c(-c2c(Cl)nc3ncnn3c2N[C@H](C)C(C)(C)C)c(F)c1 [TAL-638, (R)-5-chloro-6-(2,6-difluoro-4-(3-(methylamino)prop-1-yn-1-yl)phenyl)-N-(3,3-dimethylbutan-2-yl)-[1,2,4]triazolo[1,5-a]pyrimidin-7-amine hydrochloride] | 0.93 |  |  | fold induction at 10 µM [1, 9]: 1
17 | C[C@H](Nc1c(-c2c(F)cc(C#CCCO)cc2F)c(Cl)nc2ncnn12)C(F)(F)F [TAL-641, (S)-4-(4-(5-chloro-7-((1,1,1-trifluoropropan-2-yl)amino)-[1,2,4]triazolo[1,5-a]pyrimidin-6-yl)-3,5-difluorophenyl)but-3-yn-1-ol] | 0.98 |  |  | 
18 | N#Cc1cc(F)c(-c2c(Cl)nc3ncnn3c2N2CCCCCC2)c(F)c1 [Compound 75, 4-(7-(Azepan-1-yl)-5-chloro-[1,2,4]triazolo[1,5-a]pyrimidin-6-yl)-3,5-difluorobenzonitrile] |  | 0.98 ± 0.03 | 0.99 | 
19 | C[C@H](Nc1c(-c2c(F)cc(C#CCCCO)cc2F)c(Cl)nc2ncnn12)C(F)(F)F [TAL-642, (S)-5-(4-(5-chloro-7-((1,1,1-trifluoropropan-2-yl)amino)-[1,2,4]triazolo[1,5-a]pyrimidin-6-yl)-3,5-difluorophenyl)pent-4-yn-1-ol] | 0.93 |  |  | fold induction at 10 µM [1, 9]: 0.87

Reference: patent US20230167121A1, “SUBSTITUTED {1,2,4,} TRIAZOLO{1,5-A} PYRIMIDINE COMPOUNDS AND USE IN STABILIZING MICROTUBULES” (THE TRUSTEES OF THE UNIVERSITY OF PENNSYLVANIA, priority 2020, published 2023)
